Experimental data from US4602945A, “Acaricidal ester of tricyclohexyl-tin hydroxide” (Rhone-Poulenc Agrochimie, priority 1983, dated 1986).

How the values were obtained:
[1] = system: Plutella xylistella larvae; assay: Insecticidal test, leaf discs of turnip plants; assay type: in vivo; conditions: 100 g/hl; 48 hours; 26° C; cyhexatin in the form of a wettable powder
Description: Discs of leaf from turnip plants are placed in gelose in Petri dishes. In each dish, 10 Plutella xylistella larvae are placed on each disc and the dish is covered with a ventilated lid. The product to be tested is dissolved in a water/acetone 50/50 mixture and the discs are treated by spraying with this solution by using a Potter tower at a dose equivalent to 675 liters/ha. The discs are kept at 26° C. After 48 hours after the treatment, the live and dead larvae are counted and the mortality percentage is calculated.

[2] = Solubility in organic solvents; assay type: physicochemical; conditions: cyclohexanone (546 g), 316 g of 94% pure substance, 50° C., with stirring
Description: A reactor is charged, with cyclohexanone (546 g) and 94% pure tricyclohexyl-tin hydroxide (316 g) at 50° C., with stirring. […] Benzoic acid (95 g) is then added and the temperature is kept at 50° C.

[3] = background statement; cited from earlier work

Molecule: [OH][Sn]([CH]1CCCCC1)([CH]1CCCCC1)[CH]1CCCCC1 [cyhexatin, Tricyclohexyl-tin hydroxide]
- mortality percentage [1]: < 10%
- dissolution in cyclohexanone [2]: does not dissolve
- solubility in most of the usual solvents in agrochemistry [3]: insolubility

Molecule: tricyclohexyl-tin benzoate
- mortality percentage [1]: at least 95%
